Experimental data published in patent publication US10973849B2, “Rhenium complexes and methods of use for treating cancer” (CORNELL UNIVERSITY, priority 2016, dated 2021).
Like-named read-outs stand apart in the source and are kept apart here.

Assays:
[1] = test system: human cervical cancer cells (HeLa); experiment: In vitro anticancer activity (MTT) of [Re(CO)3(N—N)(H2O)][OTf] complexes in HeLa cells; assay type: cell-based; conditions: concentration at which cell proliferation is inhibited by 50%, read-out: IC50 of Re—(H2O) Complex
Procedure: (§1) HeLa (cervical cancer) cell line was cultured using Dulbecco's Modified Eagle's Medium (DMEM) supplemented with 10% fetal bovine serum (FBS). A2780 (ovarian cancer) and A2780CP70 (cisplatin-resistant ovarian cancer) cell lines were cultured as monolayers with Roswell Park Memorial Institute (RPMI)-1640 culture media supplemented with 10% fetal bovine serum. All cell lines were grown in a humidified incubator at 37° C. with an atmosphere of 5% CO2. Cells were passed at 80-90% confluence, using trypsin/EDTA. Cells were tested monthly for mycoplasma contamination with the PlasmoTest™ mycoplasma detection kit from InvivoGen.
(§2) All compounds were dissolved in phosphate-buffered saline (PBS, pH 7.4) to prepare a 1-2 mM stock solution. For single dose studies, only HeLa cells were used. For both the single dose and full dose response, all cells were grown to 80-90% confluence, detached with trypsin/EDTA, seeded in 96-well plates at 2000 cells/well for HeLa cells and 4000 cells/well for A2780 and A2780CP70 cells in 100 μL of growth media, and incubated for 24 hours. The medium was removed and replaced with fresh medium (200 μL) containing a single concentration of a rhenium(I) complex or media. The cells were then incubated for 4 hours, and then the cells were dosed with 365 nm for 1 hour (one plate under the same dosing conditions was kept outside the incubator in the dark as a control). After exposure to light, the plates incubated for an additional 44 hours, the medium was removed from the wells, and (3(4,5-dimethylthiazol-2-yl)-2,5-tetrazolium bromide (MTT) in RPMI (200 μL, 1 mg/mL) was added. After 4 hours, the MTT/RPMI solution was removed, and the formazan crystals were dissolved in 200 μL of an 8:1 mixture of DMSO and pH 10 glycine buffer. The absorbance at 570 nm in each well was measured using a BioTek Synergy™ HT plate reader. Cell viability was determined by normalizing the absorbance of the treated wells to untreated wells. All compounds that had less than 50% cell viability were analyzed using a full dose response. The % viability data is an average of three independent experiments with six replicates per concentration. The same procedure was followed as above for the full dose response but instead, after 24 hours, varying concentrations of the desired compounds were added. Cell viability was again determined by normalizing the absorbance of the treated wells to untreated wells The concentration of the compound versus % viability was plotted to produce dose-response curves, which were analyzed using a logistic sigmoid function fit with MagicPlot Pro™ software. The reported IC50 values are the average of three independent experiments with six replicates per concentration level.
The in vitro anticancer activities of these complexes were tested in human cervical cancer cells (HeLa), and the results are provided below in Table 1. […] The Hill-Slope is a quantitative measure of the steepness of the dose-response curve.

[2] = test system: wild-type (KB) cancer cells; experiment: Cytotoxicity in wild-type KB cancer cells; assay type: cell-based
Procedure: (§3) The Re complex containing the 2,9-dimethyl phen ligand was also tested in wild-type (KB) and cisplatin-resistant (KBCP20) cancer cells.

[3] = test system: cisplatin-resistant (KBCP20) cancer cells; experiment: Cytotoxicity in cisplatin-resistant KBCP20 cancer cells; assay type: cell-based; conditions: for IC50: cisplatin-resistant cells, read-out: IC50 KBCBP20; for RF (resistance factor): ratio of IC50 values in cisplatin-resistant versus wild-type cell lines
Procedure: as §3

[4] = test system: HeLa (cervical cancer) cell line; experiment: MTT cell viability of phosphino-Re(I) complexes in HeLa cells, dark or 365 nm light; assay type: cell-based, human; conditions: for Single Dose Cell Viability (%) Light / Single Dose Cell Viability (%) Dark: HeLa cells, single concentration; for Single Dose Cell Viability (%) Dark: kept in the dark
Procedure: as §1, §2

[5] = test system: A2780 (ovarian cancer) cell line; experiment: MTT cell viability of phosphino-Re(I) complexes in A2780 cells, dark or 365 nm light; assay type: cell-based
Procedure: as §1, §2

[6] = test system: A2780CP70 (cisplatin-resistant ovarian cancer) cell line; experiment: MTT cell viability of phosphino-Re(I) complexes in A2780CP70 cells, dark or 365 nm light; assay type: cell-based
Procedure: as §1, §2

[7] = Table 4, HeLa, 365 nm for 1 hour, read-out: IC50 Value (μM) HeLa (light)
[8] = Table 4, HeLa, dark, read-out: IC50 Value (μM) HeLa (dark)
[9] = Table 3, full dose response, 365 nm for 1 hour, read-out: IC50 Value (μM) Light
[10] = Table 3, full dose response, dark, read-out: IC50 Value (μM) Dark
[11] = A2780, 365 nm for 1 hour, read-out: IC50 Value (μM) A2780 (light)
[12] = A2780, dark, read-out: IC50 Value (μM) A2780 (dark)
[13] = A2780CP70, 365 nm for 1 hour, read-out: IC50 Value (μM) A2780CP70 (light)
[14] = A2780CP70, dark, read-out: IC50 Value (μM) A2780CP70 (dark)

Row | Compound | IC50 [1] [µM] | IC50 [4, 9] [µM] | IC50 [4, 10] [µM] | Single Dose Cell Viability (%) Light ([4]; 365 nm for 1 hour) [%] | Single Dose Cell Viability (%) Dark [4] [%] | also measured
1 | Cc1ccc2ccc3ccc(C)nc3c2n1.O.O=S(=O)([O-])C(F)(F)F.[C-]#[O+].[C-]#[O+].[C-]#[O+].[Re+] [2,9-dimethyl phen, [Re(CO)3(N—N)(H2O)][OTf]] | 0.97 ± 0.21 |  |  |  |  | IC50 [2]: 0.4 µM; IC50 [3]: 2 µM; RF (resistance factor) [3]: 5
2 | N.N.[Cl][Pt][Cl] [cisplatin, reference compound] | 3 ± 1.2 |  |  |  |  | IC50 [2]: 0.8 µM; IC50 [3]: 50 µM; RF (resistance factor) [3]: 62.5
3 | Re(CO)2(phen)(DAPTA)(H2O) [DAPTA-phen dicarb (3b)] |  |  |  |  |  | IC50 [4, 7]: > 200 µM; IC50 [4, 8]: > 200 µM
4 | Re(CO)3(bpy)(DAPTA) [DAPTA-bpy (9)] |  | 14.9 ± 3.2 | > 200 |  |  | 
5 | Re(CO)3(bpy)(PTA) [PTA-bpy (7)] |  |  |  | 90.5 ± 4.1 | 97.9 ± 3.7 | 
6 | Re(CO)3(bpy)(THP) [THP-bpy (8)] |  |  |  | 73.1 ± 6.4 | 98.9 ± 1.6 | 
7 | Re(CO)3(dmbpy)(DAPTA) [DAPTA-dmbpy (12)] |  | 60.3 ± 18.2 | > 200 |  |  | 
8 | Re(CO)3(dmbpy)(PTA) [PTA-dmbpy (10)] |  |  |  | 82.5 ± 9.7 | 94.4 ± 4.9 | 
9 | Re(CO)3(dmbpy)(THP) [THP-dmbpy (11)] |  |  |  | 30.7 ± 14.6 | 93.3 ± 6.0 | 
10 | Re(CO)3(dmobpy)(DAPTA) [DAPTA-dmobpy (15)] |  | 26.4 ± 9.2 | > 200 |  |  | 
11 | Re(CO)3(dmobpy)(PTA) [PTA-dmobpy (13)] |  |  |  | 96.0 ± 6.8 | 98.2 ± 3.2 | 
12 | Re(CO)3(dmobpy)(THP) [THP-dmobpy (14)] |  | 68 ± 4.3 | 72.6 | 12.7 ± 5.8 | 57.5 ± 11.0 | 
13 | Re(CO)3(dmphen)(DAPTA) [DAPTA-dmphen (6)] |  | 19.2 ± 2.9 | > 200 |  |  | 
14 | Re(CO)3(dmphen)(PTA) [PTA-dmphen (4)] |  |  |  | 87.0 ± 8.0 | 90.0 ± 8.8 | 
15 | Re(CO)3(dmphen)(THP) [THP-dmphen (5)] |  | 9.6 ± 4.2 | > 200 | 1.3 ± 1.1 | 61.8 ± 6.2 | 
16 | Re(CO)3(phen)(DAPTA) [DAPTA-phen (3)] |  | 5.9 ± 1.4 | > 200 |  |  | IC50 ([4]; HeLa, 365 nm for 1 hour, w/ oxyhemoglobin, read-out: IC50 Value (μM) HeLa (light)): > 200 µM; IC50 ([4]; HeLa, dark, w/ oxyhemoglobin, read-out: IC50 Value (μM) HeLa (dark)): > 200 µM; IC50 [4, 7]: 5.9 ± 1.4 µM; IC50 [4, 8]: > 200 µM; IC50 [5, 11]: 2.2 ± 1.1 µM; IC50 [5, 12]: > 200 µM; IC50 [6, 13]: 3.2 ± 0.7 µM; IC50 [6, 14]: > 200 µM
17 | Re(CO)3(phen)(PTA) [PTA-phen (1)] |  | > 200 | > 200 | 99.6 ± 0.7 | 99.4 ± 1.0 | IC50 [4, 7]: > 200 µM; IC50 [4, 8]: > 200 µM; IC50 [5, 11]: 53.1 ± 2.6 µM; IC50 [5, 12]: > 200 µM; IC50 [6, 13]: > 200 µM; IC50 [6, 14]: > 200 µM
18 | Re(CO)3(phen)(THP) [THP-phen (2)] |  | 26.4 ± 9.2 | > 200 | 2.5 ± 1.8 | 91.8 ± 8.7 | IC50 [4, 7]: 26.4 ± 9.2 µM; IC50 [4, 8]: > 200 µM; IC50 [5, 11]: 4.6 ± 1.4 µM; IC50 [5, 12]: > 200 µM; IC50 [6, 13]: 29.9 ± 7.7 µM; IC50 [6, 14]: > 200 µM
19 | [Re(CO)3(N—N)(H2O)][OTf] [4,4′-dimethoxy bpy] | 8.8 ± 2.4 |  |  |  |  | 
20 | [Re(CO)3(N—N)(H2O)][OTf] [4,4′-dimethyl bpy] | 5.8 ± 3.4 |  |  |  |  | 
21 | [Re(CO)3(N—N)(H2O)][OTf] [4,4′dimethylester bpy] | 210 ± 30 |  |  |  |  | 
22 | [Re(CO)3(N—N)(H2O)][OTf] [4,7-diphenyl phen] | 15 ± 7 |  |  |  |  | 
23 | [Re(CO)3(N—N)(H2O)][OTf] [bpy] | 15 ± 5 |  |  |  |  | 
24 | [Re(CO)3(N—N)(H2O)][OTf] [phen] | 9.7 ± 5.8 |  |  |  |  | 
